Molecules are shown by their SMILES.

The text below walks through data of US8765802B2, “Kinase inhibitors, compositions thereof, and methods of use therewith” (Provid Pharmaceuticals, Inc., priority 2007, dated 2014).

One assay concerns HDMX in MCF7 cells. Put plainly: HDMX degradation in MCF7 cells following DNA damage (Western blot). The format is cell-based. Particulars: varying concentrations 2.5 h, then 1 μM topotecan 4 h or 10 Gy IR + 4 h. On the procedure: FIG. 2. […] MCF7 cells were treated in the absence (control) or presence of compound 18 at varying concentrations for 2.5 hours. The cells were then exposed to either 1 μM topotecan (TPT) for 4 hours or they were exposed to 10 Gy IR and incubated for 4 hours. Whole cell extracts were made and Western blotting was performed to detect HDMX. The levels of HDMX were quantified from the blots and normalized to actin. The normalized levels of HDMX are depicted as bar graphs under the blots.
In the case of `C/C(=N\NC(=N)N)c1ccc(NC(=O)c2cc3cccc([N+](=O)[O-])c3[nH]2)cc1` [Compound 18], the “Effect on HDMX degradation following DNA damage” value is on record as “Abrogation of HDMX degradation”.

The target in another assay is T1, Chk2 (Homo sapiens, UniProt O96017).
T1 construct: made in house; host or cells: E. coli BL21 Star (Invitrogen)
T1 sequence (O96017 whole entry): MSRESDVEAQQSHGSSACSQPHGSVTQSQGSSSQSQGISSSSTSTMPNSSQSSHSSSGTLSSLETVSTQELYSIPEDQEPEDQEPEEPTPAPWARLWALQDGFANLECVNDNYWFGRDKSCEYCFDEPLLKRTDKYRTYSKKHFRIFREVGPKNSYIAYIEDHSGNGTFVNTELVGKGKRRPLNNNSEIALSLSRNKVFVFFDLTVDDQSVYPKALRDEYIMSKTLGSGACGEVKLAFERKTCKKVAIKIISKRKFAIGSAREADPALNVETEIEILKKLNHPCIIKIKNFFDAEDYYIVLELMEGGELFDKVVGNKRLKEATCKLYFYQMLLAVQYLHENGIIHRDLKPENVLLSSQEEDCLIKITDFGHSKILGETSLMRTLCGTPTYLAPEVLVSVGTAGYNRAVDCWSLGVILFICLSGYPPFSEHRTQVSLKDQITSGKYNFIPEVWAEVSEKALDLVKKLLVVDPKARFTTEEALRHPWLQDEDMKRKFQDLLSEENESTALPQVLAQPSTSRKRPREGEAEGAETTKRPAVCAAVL
The experiment in a line: Chk2 inhibitor IMAP assay (high-throughput Chk2 screening assay). The settings on record: IMAP fluorescence polarization assay, 10 μM ATP. In kind it is biochemical.
As to `C/C(=N\NC(=N)N)c1ccc(NC(=O)c2cc3cccc([N+](=O)[O-])c3[nH]2)cc1` [Compound 18], the EC50 is less than 100 nM.

With `C/C(=N\NC(=N)N)c1ccc2[nH]c(C(=O)Nc3ccc4[nH]c(C)cc4c3)cc2c1` [Compound 109], the EC50 lay in the range of 300 to 1000 nM.

`COc1ccc2[nH]c(C(=O)Nc3ccc4c(c3)CC/C4=N\NC(=N)N)cc2c1` [Compound 110] showed an EC50 greater than 10000 nM.

In turn, `C/C(=N\NC(=N)N)c1ccc2[nH]c(C(=O)Nc3cccc(N)c3)cc2c1` [Compound 111] had an EC50 of 300 to 1000 nM.

For the compound `C/C(=N\NC(=N)N)c1ccc2[nH]c(C(=O)Nc3ccc(N)cc3)cc2c1` [Compound 114], the EC50 fell in the range of 1000 to 10000 nM.

`C/C(=N\NC(=N)N)c1ccc2[nH]c(C(=O)Nc3ccc(C(N)=O)cc3)cc2c1` [Compound 115] showed an EC50 of 100 to 300 nM.

The compound `CC(=NNC(N)=NO)c1ccc(NC(=O)Nc2ccc(C(C)=NNC(N)=NO)cc2)cc1` [Compound 116] had an EC50 of less than 100 nM.

Regarding `COc1ccc2[nH]c(C(=O)Nc3ccc(C(C)=NNC(N)=NO)cc3)cc2c1` [Compound 117], the EC50 is less than 100 nM.

For `CC(=NNC(N)=NO)c1ccc(NC(=O)c2cc3cccc([N+](=O)[O-])c3[nH]2)cc1` [Compound 118], the EC50 was less than 100 nM.

The compound `C/C(=N\NC(=N)N)c1ccc2[nH]c(C(=O)Nc3ccc4nc[nH]c4c3)cc2c1` [Compound 121] came in with an EC50 of less than 100 nM.

The compound `C/C(=N\NC(=N)N)c1ccc2[nH]c(C(=O)Nc3ccc4cnccc4n3)cc2c1` [Compound 122] showed an EC50 greater than 10000 nM.

In turn, `C/C(=N\NC(=N)N)c1ccc2[nH]c(C(=O)Nc3ccc4nc(C)ccc4c3)cc2c1` [Compound 125] gave an EC50 of 100 to 300 nM.

In turn, `C/C(=N\NC(=N)N)c1ccc2[nH]c(C(=O)Nc3ccc4cnccc4c3)cc2c1` [Compound 126] came in with an EC50 of less than 100 nM.

In the case of `C/C(=N/NC(=N)N)c1ccc2[nH]c(C(=O)Nc3ccc(-n4ccnc4)cc3)cc2c1` [Compound 127], the EC50 was in the range of 100 to 300 nM.

Take `C/C(=N/N/C(N)=N\O)c1ccc2[nH]c(C(=O)Nc3ccc(N4CCCCC4)cc3)cc2c1` [Compound 128]: the EC50 was 100 to 300 nM.

In turn, `C/C(=N\N/C(N)=N/O)c1ccc(NC(=O)c2cc3cc(C(N)=O)ccc3[nH]2)cc1` [Compound 129] came in with an EC50 of 300 to 1000 nM.

On to `C/C(=N\NC(=N)N)c1ccc(NC(=O)c2cc3cc(C(CC(C)C)=NNC(=N)N)ccc3[nH]2)cc1` [Compound 130], for which the EC50 was less than 100 nM.

A further assay relates to OVCAR-4 cells. The experiment in a line: Combination with camptothecin in OVCAR-4 cells (MTS growth inhibition). The format is cell-based, human. Particulars: 48 h, MTS staining, 40 combinations. As to the method:
FIG. 4. Compound 18 is synergistic with camptothecin (CPT) in OVCAR-4 cells. OVCAR-4 cells were treated with either compound 18 or CPT as single agents in 96 well tissue culture plates. In addition, the cells were exposed to 40 combinations of compound 18 and CPT. The drug treatments were for 48 hours and the cells were then subjected to MTS staining to determine the growth inhibitory effect. The graph represents a 3-dimensional plot of the MTS data obtained. The upper, light gray surface represents a theoretical surface of additivity that was generated from dose response curves of compound 18 alone and CPT alone. The lower, dark grey surface depicts the surface of the combination of compound 18 and CPT that was generated from data obtained in the MTS assay (shown by the blue circles). Data points lying under the green additivity surface are deemed to synergistic combinations. The bar graph on the right is a 2-dimensional representation of 1 combination of 11 μM compound 18 and 6.25 μM CPT taken from the 3-D model.
`C/C(=N\NC(=N)N)c1ccc(NC(=O)c2cc3cccc([N+](=O)[O-])c3[nH]2)cc1` [Compound 18]: the “Combination effect with camptothecin (CPT)” value is listed as “synergistic”.

Another assay concerns mouse thymocytes. The experiment in a line: IR-induced apoptosis in mouse thymocytes (PI staining, FACS). The format is cell-based. Particulars: thymocytes from Chk2+/+ or Chk2-/- mice, 1 μM for 1 h, 5 Gy IR, 16 h. On the procedure: FIG. 3. […] Thymocytes were isolated from Chk2+/+ or Chk2−/− mice by mechanical disaggregation. The isolated thymocytes were treated in the absence or presence of 1 μM compound 18 or ref^λ (J. Wu et al, Bioorganic and Medicinal Chemistry letters, 2007, 17(1), 172, [N-isobutyl analog of compound 7]) for 1 hour. The cells were then exposed to 5 Gy IR and incubated for 16 hours. The cells were then washed in PBS and fixed in ethanol. Propidium isodide (PI) was added in the presence of RNAse A before being subjected to flow cytometry. The graphs show FACS analysis of the PI stained cells.
`C/C(=N\NC(=N)N)c1ccc(NC(=O)c2cc3cccc([N+](=O)[O-])c3[nH]2)cc1` [Compound 18]: the “Effect on IR-induced apoptosis” value is reported as “abrogation of IR-induced apoptosis”.
